Where “and” joins values, the source holds several entries; their conditions need not be identical. Identical values can stand only once. Like-named read-outs stand apart in the source and are kept apart here.
Tests used:
EAE mice = assay: EAE clinical disease score; format: in vivo, C57BL/6J mouse; conditions: 5 mg/kg/day SC from peak disease
Protocol: EAE induction and treatment: EAE was induced in 8–10-week-old wild-type C57BL/6J mice using MOG₃₅-₅₅ peptide[11],[14],[23]–[25]. Mice were scored daily using a standard clinical scale (0–5) and tested for their ability to stay on a rotarod. […] At peak disease (18–22 days post-immunization), animals were grouped into EAE+Vehicle, EAE+K102, and EAE+K110.
Fig. 3 Experimental design for treatment effects in EAE. (A) Experimental plan. […] Following emulsion injection, mice were injected with pertussis (PTX). Mice were scored for their clinical EAE score daily. EAE mice (red) show signs of disease starting at days 8–17. At peak disease between the days […], therapeutic treatment started and continued daily until the end of the experiment (D35-45). […] N = 6–8 mice/group. Two-Way unbalanced ANOVA with Dunnett’s multiple comparisons test was performed. […]
EAE induction and treatment: Eight to ten-week-old wild-type C57BL/6J mice were induced with active EAE using MOG35-55 peptide as previously described (1-5). […] Animals were scored daily for clinical EAE scores as follows: 0, unaffected; 1, complete tail limpness; 2, failure to right upon attempt to roll over; 3, partial hind limb paralysis; 4, complete hind limb paralysis; […]. At peak disease 18-22 dpi, mice were scored and separated into 3 groups: EAE+V, EAE+SHK-K102, and EAE+K110. […]

[1] = system: EAE optic nerve gene transcripts; assay: NanoString nCounter Mouse Neuropathology gene expression, optic nerve RNA; format: in vivo
Protocol: RNA Extraction and NanoString nCounter Gene Expression Assay: RNA was isolated from a single optic nerve of normal, EAE+Vehicle, and EAE+K102 mice[28]. The RNA samples were analyzed using the nCounter Mouse Neuropathology panel (NanoString Technologies) (Supplementary Data Set 1). Fold changes were calculated using normalized data for the three groups (Supplementary Data Set 2).
Genes associated with myelination, inflammation, and axon health are altered in EAE optic nerves compared to normal optic nerves. To examine how K102 treatment affects these gene transcripts, RNA from treated optic nerves was analyzed using the NanoString Neuropathology gene expression panel (Fig. 7A, Supplementary Data Set 1). […] Ccr2 is a chemokine receptor involved in recruiting immune cells to sites of inflammation. Cpt1b (carnitine palmitoyltransferase 1B) is an enzyme critical for fatty acid oxidation.
RNA Extraction and NanoString nCounter Gene Expression Assay: RNA was isolated from a single optic nerve as described previously in(9). Optic nerves were isolated from normal, EAE+V, and EAE+K102 mice. RNA isolates were run on the nCounter Mouse Neuropathology panel (NanoString Technologies, Seattle, WA). Normalized data was used to calculate fold change for all three groups.
For nCounter gene expression analysis, normalized counts were used to calculate log2 fold changes. Welch’s t-test (unequal variance t-test) was applied when comparing NM vs. EAE+V and EAE+V vs. EAE+K102, as both sample sizes and variances differed between groups. Significance levels were set as follows: *p < 0.05, **p < 0.01, ***p < 0.001, and ****p < 0.0001. Summary of statistics for Figures is in a table format in the supplementary sections Supplementary TableS7-S12 […]

CYP1A2 = CYP1A2 (Homo sapiens, UniProt P05177); assay: CYP inhibition; conditions: test compounds at 10 μM; substrate Phenacetin
Sequence of CYP1A2 (P05177 whole entry): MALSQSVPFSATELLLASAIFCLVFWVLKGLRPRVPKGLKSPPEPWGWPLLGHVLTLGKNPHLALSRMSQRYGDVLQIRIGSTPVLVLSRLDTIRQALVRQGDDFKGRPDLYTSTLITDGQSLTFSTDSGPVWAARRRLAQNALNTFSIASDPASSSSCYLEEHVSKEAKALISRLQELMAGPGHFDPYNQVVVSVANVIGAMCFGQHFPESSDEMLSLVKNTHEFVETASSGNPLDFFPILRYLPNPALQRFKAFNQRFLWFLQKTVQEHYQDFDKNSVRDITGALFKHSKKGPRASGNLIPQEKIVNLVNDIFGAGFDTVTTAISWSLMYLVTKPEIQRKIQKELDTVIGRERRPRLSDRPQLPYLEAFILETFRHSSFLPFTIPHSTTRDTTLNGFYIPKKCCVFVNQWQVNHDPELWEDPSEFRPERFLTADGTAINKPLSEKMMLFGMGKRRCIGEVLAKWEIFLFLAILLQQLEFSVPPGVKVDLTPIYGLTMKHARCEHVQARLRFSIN

CYP2D6 [2] = biological target: T1, CYP2D6 (Homo sapiens, UniProt P10635); assay: CYP inhibition; conditions: test compounds at 10 μM; substrate Dextromethorphan
T1 sequence (P10635 whole entry): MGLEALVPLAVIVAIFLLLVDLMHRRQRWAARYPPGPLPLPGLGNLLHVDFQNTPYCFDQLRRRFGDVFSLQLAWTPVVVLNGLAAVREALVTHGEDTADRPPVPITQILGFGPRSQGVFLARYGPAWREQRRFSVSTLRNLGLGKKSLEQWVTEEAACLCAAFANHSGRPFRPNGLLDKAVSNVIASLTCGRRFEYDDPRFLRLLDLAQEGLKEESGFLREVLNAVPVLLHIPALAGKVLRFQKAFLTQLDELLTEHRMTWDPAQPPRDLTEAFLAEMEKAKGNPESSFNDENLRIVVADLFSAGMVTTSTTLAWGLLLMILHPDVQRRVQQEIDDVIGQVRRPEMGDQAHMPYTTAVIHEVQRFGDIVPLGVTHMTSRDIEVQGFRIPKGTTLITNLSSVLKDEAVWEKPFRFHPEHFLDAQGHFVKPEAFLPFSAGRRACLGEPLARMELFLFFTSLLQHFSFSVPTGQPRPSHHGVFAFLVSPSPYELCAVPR

[3] = Pharmacokinetics and brain/plasma distribution in CD1 mice (IV, SC, PO); conditions: CD1 mouse
Protocol: Mice were dosed intravenously at 5 mg/kg, subcutaneously at 10 mg/kg, and orally at 25 mg/kg.
Only values above the LLOQ.(0.3 ng/mL) were plotted.

[4] = microsomes
[5] = microsomes; remark: listed apart in the source
[6] = hepatocytes
[7] = hepatocytes; remark: listed apart in the source
CYP2C19 = CYP2C19 (Homo sapiens, UniProt P33261); conditions: 10 µM
Sequence of CYP2C19 (P33261 whole entry): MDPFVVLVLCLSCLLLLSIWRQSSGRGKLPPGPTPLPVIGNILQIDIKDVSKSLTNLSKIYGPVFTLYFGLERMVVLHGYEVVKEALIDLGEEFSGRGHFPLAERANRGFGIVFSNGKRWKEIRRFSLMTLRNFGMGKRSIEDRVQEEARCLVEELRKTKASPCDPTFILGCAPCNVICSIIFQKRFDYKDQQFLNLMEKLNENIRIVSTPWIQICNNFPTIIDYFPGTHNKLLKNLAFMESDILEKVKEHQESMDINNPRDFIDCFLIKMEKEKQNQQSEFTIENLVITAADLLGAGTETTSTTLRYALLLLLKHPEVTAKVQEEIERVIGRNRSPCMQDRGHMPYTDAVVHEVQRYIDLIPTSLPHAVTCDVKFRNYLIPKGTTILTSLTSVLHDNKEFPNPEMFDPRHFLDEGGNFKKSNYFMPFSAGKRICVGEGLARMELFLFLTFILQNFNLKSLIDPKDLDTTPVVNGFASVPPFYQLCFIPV

CYP2D6 [8] = biological target: T1, CYP2D6; conditions: 10 µM
[9] = plasma

Structure (SMILES): Cc1cc(O)ccc1-n1nc2ccc(O)cc2c1Cl [Compound K102, IndCl-o-Me]
- EAE clinical disease (EAE mice): superior attenuation
- Ccr2 and Cpt1b transcripts vs vehicle-treated optic nerves ([1]; 2 of 770 genes): significantly altered
- Arc and Pvalb transcripts vs vehicle ([1]; optic nerve, EAE): increased
- Sox10 and Olig2 transcripts relative to vehicle ([1]; optic nerve, EAE): increase
- complement system genes C1qa, C1qb, C1qc, and C3 ([1]; optic nerve, EAE): did not significantly impact
- mitochondrial-related genes Pink1, Tfam, Mfn2, Park7, and Sirt2 ([1]; vs untreated EAE optic nerves): significant increase
- CYP Inhibition Percentage CYP1A2 (CYP1A2): 26.19%
- CYP Inhibition Percentage CYP2D6 (CYP2D6 [2]): 18.26%
- Kp AUC0-t (brain/plasma) ([3]; IV 5 mg/kg): 0.43
- Kp AUClast (brain/plasma) ([3]; IV 5 mg/kg): 0.41
- Ratio of Cmax (brain/plasma) ([3]; IV 5 mg/kg): 0.54
- Vss_obs ([3]; IV 5 mg/kg): 5.74 L/kg
- AUC0-t ([3]; IV 5 mg/kg, brain): 211 ng·h/g
- T1/2 ([3]; IV 5 mg/kg, brain): 52.2 min
- Tmax ([3]; IV 5 mg/kg, brain): 6 min
- AUC0-t ([3]; IV 5 mg/kg, plasma): 491 ng·h/mL
- C0 or max ([3]; IV 5 mg/kg, plasma): 3256 ng/mL
- Cl_obs ([3]; IV 5 mg/kg, plasma): 169 mL/min/kg
- T1/2 ([3]; IV 5 mg/kg, plasma): 55.2 min
- Kp AUC0-t (brain/plasma) ([3]; PO 25 mg/kg): 0.40
- Ratio of Cmax (brain/plasma) ([3]; PO 25 mg/kg): 0.59
- AUC0-t ([3]; PO 25 mg/kg, brain): 391 ng·h/g
- Cmax ([3]; PO 25 mg/kg, brain): 279 ng/g
- Tmax ([3]; PO 25 mg/kg, brain): 15 min
- T1/2 (brain retention) ([3]; PO 25 mg/kg, brain, 25 mg/kg): 288 min and 287 min
- AUC0-t ([3]; PO 25 mg/kg, plasma): 991 ng·h/mL
- Cmax ([3]; PO 25 mg/kg, plasma): 471 ng/mL
- T1/2 ([3]; PO 25 mg/kg, plasma): 611.4 min
- Tmax ([3]; PO 25 mg/kg, plasma): 4.98 min
- F (Bioavailability) ([3]; PO 25 mg/kg, plasma, 25 mg/kg): 40% and 40.4%
- AUCinf plasma ([3]; PO 25 mpk): 991 ng·h/mL
- Brain/Plasma Ratio(%) ([3]; PO 25 mpk): 40%
- Kp AUC0-t (brain/plasma) ([3]; SC 10 mg/kg): 0.35
- Kp AUClast (brain/plasma) ([3]; SC 10 mg/kg): 0.35
- Ratio of Cmax (brain/plasma) ([3]; SC 10 mg/kg): 0.24
- AUC0-t ([3]; SC 10 mg/kg, brain): 477 ng·h/g
- Cmax ([3]; SC 10 mg/kg, brain): 218 ng/g
- Tmax ([3]; SC 10 mg/kg, brain): 30 min
- T1/2 (brain retention) ([3]; SC 10 mg/kg, brain, 10 mg/kg): 120 min
- T1/2 (brain retention) ([3]; SC 10 mg/kg, brain, listed as IndCl-o-Me, 10 mg/kg): 118 min
- AUC0-t ([3]; SC 10 mg/kg, plasma): 1385 ng·h/mL
- Cmax ([3]; SC 10 mg/kg, plasma): 919 ng/mL
- T1/2 ([3]; SC 10 mg/kg, plasma): 134 min
- Tmax ([3]; SC 10 mg/kg, plasma): 4.98 min
- AUCinf brain ([3]; SC 10 mpk): 480 ng·h/g
- AUCinf plasma ([3]; SC 10 mpk): 1390 ng·h/mL
- Brain/Plasma Ratio(%) ([3]; SC 10 mpk): 35%

Structure (SMILES): Oc1ccc(-n2nc3ccc(O)cc3c2Cl)c(O)c1 [Compound K110, IndCl-o-OH]
- Liver Microsome Stability (Human) CLint [4]: 13.64 µL/min/mg protein
- Liver Microsome Stability (Human) % Remaining (30 min) ([4]; 0.5 h): 66.88%
- Liver Microsome Stability (Mouse) CLint [5]: 35.28 µL/min/mg protein
- Liver Microsome Stability (Mouse) t1/2 [5]: 20.06 min
- Liver Microsome Stability (Mouse) % Remaining (30 min) ([5]; 0.5 h): 35.72%
- Hepatocyte Stability (Human) CLint [6]: 12.69 µL/min/mg protein
- Hepatocyte Stability (Human) % Remaining (15 min) ([6]; 0.25 h): 87.14%
- Hepatocyte Stability (Mouse) t1/2 [7]: 6.15 min
- Hepatocyte Stability (Mouse) % Remaining (15 min) ([7]; 0.25 h): 19.46%
- CYP Inhibition Percentage CYP2C19 (CYP2C19): 27.89%
- CYP Inhibition Percentage CYP2D6 (CYP2D6 [8]): 5.63%
- Protein Binding (% Bound) Human [9]: 93.27%

From article PMC12508063, “Chloroindazole based estrogen receptor β ligands with favorable pharmacokinetics promote functional remyelination and visual recovery” (Scientific Reports, 2025)
